Experimental data published in patent US20230123334A1, “AMINO LIPID COMPOUND, PREPARATION METHOD THEREFOR, AND APPLICATION THEREOF” (SHENZHEN SHENXIN BIOTECHNOLOGY CO., LTD., priority 2020, published 2023).

How the values were obtained:
HEK293 cells [1] = test: Preliminary screening as DNA vectors, GFP transfection of HEK293 cells; assay type: cell-based; conditions: HEK293 cells; lipid/DOPE liposome with 75 ng plasmid DNA (psin-EGFP-IRES-Puro); number of cells expressing GFP divided by total number of nuclei (Hoechst)
Method in brief: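 First, amino lipid and DOPE were vortexed in sodium acetate buffer (pH 5.6) to form liposomes. Next, these were held with 75 ng EGFP plasmid at room temperature for 30 min. Finally, HEK293 cells were added, cultured at 37° C., Hoechst-stained, and GFP+/total nuclei scored by imaging.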

HEK293 cells [2] = test: Preliminary screening as mRNA vectors, EGFP mRNA transfection of HEK293 cells; assay type: cell-based; conditions: HEK293 cells, 96-well plates, EGFP mRNA 50 ng per well; percentage of GFP fluorescent cells relative to total number of cells (Hoechst)
Method in brief: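 Screening format: EGFP mRNA transfection (50 ng/well) into HEK293 in 10% FBS-supplemented DMEM. Percent green fluorescent cells, normalised to Hoechst nuclear count, gave the value; Lipofectamine2000 was the reference transfectant.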

SMILES	Absolute DNA transfection efficiency in HEK293 cells (HEK293 cells [1]) [%]	Absolute mRNA transfection efficiency in HEK293 cells (HEK293 cells [2]) [%]
CCCCCCCCCCCCCCCCSc1nc(NCCN2CCCC2)nc(SCCCCCCCCCC)n1 [Compound S10S16D3]	9.5	1.7
CCCCCCCCCCCNc1nc(NCCCCCCCCC)nc(NCCN2CCCC2)n1 [Compound N9N11D3]	0.0	1.8
CCCCCCCCCCCCCCCSc1nc(NCCN2CCOCC2)nc(SCCCCCCCCCCCC)n1 [Compound S12S15D2]	0.5	0.0
CCCCCCCCCCCCCCCCCCSc1nc(NCCN(CC)CC)nc(SCCCCCCCCCCCCCCC)n1 [Compound S15S18D7]	1.5	9.3
CCCCCCCCCNc1nc(NCCCCCCCC)nc(NCCN(CC)CC)n1 [Compound N8N9D7]	0.0	0.0
CCCCCCCCCCCNc1nc(NCCCCCCCCC)nc(NCCN2CCN(C)CC2)n1 [Compound N9N11D5]	0.0	1.1
CCCCCCCCCCCCCCCCSc1nc(NCCN(C)C)nc(SCCCCCCCCCCCC)n1 [Compound S12S16D1]	0.6	0.0
CCCCCCCCCCCCCCCNc1nc(NCCCCCCCCCCCCCCC)nc(NCCN(CC)CC)n1 [Compound N15N15D7]	0.5	0.0
CCCCCCCCCNc1nc(NCCCCCCCC)nc(NCCN(C)C)n1 [Compound N8N9D1]	0.0	0.8
CCCCCCCCCCCCCCCCCCNc1nc(NCCCCCCCCC)nc(NCCN(C)C)n1 [Compound N9N18D1]	4.0	5.1
CCCCCCCCCNc1nc(NCCCCCCCCC)nc(NCC2CCN(C)CC2)n1 [Compound N9N9D10]	0.0	0.8
CCCCCCCCCCCCCCCCNc1nc(NCCCCCCCCCCC)nc(NCCCN2CCOCC2)n1 [Compound N11N16D8]	0.0	0.4
CCCCCCCCCCCCCCCCNc1nc(NCCCCCC)nc(NCCN2CCCCC2)n1 [Compound N6N16D4]	0.0	0.0
CCCCCCCCCCCNc1nc(NCCCCCC)nc(NCCN2CCN(C)CC2)n1 [Compound N6N11D5]	0.1	0.5
CCCCCCCCCCCCSc1nc(NCCCN(C)C)nc(SCCCCCCCCCCCC)n1 [Compound S12S12D6]	3.9	2.6
CCCCCCCCCCCCCCCCSc1nc(NCCN2CCCC2)nc(SCCCCCCCCCCCCCCC)n1 [Compound S15S16D3]	0.1	0.2
CCCCCCCCCCCCCCCNc1nc(NCCCCCC)nc(NCCN2CCN(C)CC2)n1 [Compound N6N15D5]	0.0	0.0
CCCCCCCCCCCCCCCCCCNc1nc(NCCCCCCC)nc(NCCN2CCOCC2)n1 [Compound N7N18D2]	0.0	0.0
CCCCCCCCCCCCCCCCCCSc1nc(NCCCN2CCOCC2)nc(SCCCCCCCCCCCCCCCCCC)n1 [Compound S18S18D8]	0.0	0.0

SMILES	Absolute DNA transfection efficiency in HEK293 cells (HEK293 cells [1]) [%]	Absolute mRNA transfection efficiency in HEK293 cells (HEK293 cells [2]) [%]
CCCCCCCCCCCCCCCCCCNc1nc(NCC2CCN(C)CC2)nc(N(CCCCCCCCCCCC)CCCCCCCCCCCC)n1 [N18^2N12D10]	0.7	2.2
CCCCCCCCCCCCCCCCCCSc1nc(NCCN(C)C)nc(SCCCCCCCCCCCCCCCCCC)n1 [Compound S18S18D1]	0.0	0.0
CCCCCCCCCCCCCCSc1nc(NCCN(CC)CC)nc(SCCCCCCCC)n1 [Compound S8S14D7]	7.5	1.3
CCCCCCCCCCCCCCCNc1nc(NCCCCCCCCCCCCC)nc(NCCN(C)C)n1 [Compound N13N15D1]	1.5	1.4
CCCCCCCCCCCNc1nc(NCCCCCC)nc(NCCN2CCCCC2)n1 [Compound N6N11D4]	0.0	0.0
CCCCCCCCCCCCCCCSc1nc(NCCCN(C)C)nc(SCCCCCCCCCCC)n1 [Compound S11S15D6]	4.8	15.4
CCCCCCCNc1nc(NCCCCCCC)nc(NCCCN2CCN(C)CC2)n1 [Compound N7N7D9]	0.0	0.0
CCCCCCCCCCSc1nc(NCCN2CCOCC2)nc(SCCCCCCCCC)n1 [Compound S9S10D2]	10.7	2.5
CCCCCCCCCCCNc1nc(NCCCCCCCCCCC)nc(NCCCN(C)C)n1 [Compound N11N11D6]	0.7	1.1
CCCCCCCCNc1nc(NCCCCCCCC)nc(NCCN(C)C)n1 [Compound N8N8D1]	2.3	0.0
CCCCCCCCCCCCCCCCSc1nc(NCCN2CCOCC2)nc(SCCCCCCCCCC)n1 [Compound S10S16D2]	0.1	0.3
CCCCCCCCCCCCSc1nc(NCCN2CCN(C)CC2)nc(SCCCCCCCCCC)n1 [Compound S10S12D5]	9.8	33.5
CCCCCCCCCCCCNc1nc(NCCCCCCCCC)nc(NCCN2CCCC2)n1 [Compound N9N12D3]	0.6	4.3
CCCCCCCCCCCCCNc1nc(NCCCCCC)nc(NCCN2CCN(C)CC2)n1 [Compound N6N13D5]	0.0	0.0
CCCCCCCCCCCCCCCNc1nc(NCCCCCCCCC)nc(NCCN(C)C)n1 [Compound N9N15D1]	0.5	2.2
CCCCCCCCCCCCCCCNc1nc(NCCN2CCCC2)nc(N(CCCCCCCCCCCC)CCCCCCCCCCCC)n1 [N15^2N12D3]	2.4	0.0
CCCCCCCCCCCCCCCNc1nc(NCCCCCCCCCCCC)nc(NCCCN2CCN(C)CC2)n1 [Compound N12N15D9]	1.5	0.9
CCCCCCCCCCCCN(CCCCCCCCCCCC)c1nc(NCCCCCC)nc(NCCN2CCCC2)n1 [N6^2N12D3]	0.4	0.1
